Key:
Format in all cases: cell-based
[1] = test system: Candida albicans IHEM 14796; test: Tests on yeast according to ISO 22196; conditions: incubation 24 h
Method: The antibacterial activity of the silicone compositions of the invention was tested on the yeast line Candida albicans IHEM 14796, according to the procedure of the ISO 22196 standard (second edition, 2011).
(§1) The silicone films prepared in Example 5A were used.
The procedure followed is identical with that of Example 5A.

[2] = test system: Escherichia coli ATCC 8739; test: Antibacterial activity of silicone films, ISO 22196; conditions: incubation 24 h at 37° C., detection limit log10(N)=1.4
Method: (§2) The antibacterial activity of the silicone compositions of the invention was tested on 6 lines of bacteria, according to the procedure for the ISO 22196 standard (second edition, 2011).
(§3) The lines of tested bacteria are: Klebsiella pneumoniae DSM 16609, Staphylococcus aureus ATCC 25923, Enterococcus faecalis ATCC 29212, Escherichia coli ATCC 8739, Acinetobacter baumannii CIP 70.34 and Enterobacter cloacae DSM 30054.
(§4) Silicone films were prepared according to Examples 2 and 3, comprising 0%, 2% or 5% of antimicrobial agent PHMG-DBS, OMIM-BF4 or DMIM-BF4 (7 types of silicone films were therefore prepared).
(§5) Square pieces of silicone films with dimensions 25 mm×25 mm were cut out, as well as squares of polypropylene of dimension 20 mm×20 mm. The latter were passed in the autoclave at 115° C. for 20 minutes.
(§6) The bacteria were cultivated overnight at 37° C. in an agar culture medium. Suspensions of bacteria were then prepared in a nutrient broth culture medium with a bacterial concentration of 6.10^5 CFU/ml.
(§7) Each silicone square (not sterilized) was placed on a lid of a Petri dish with a diameter of 55 mm, which itself was placed in a Petri dish with a diameter of 94 mm. 100 μl of bacterial suspension were deposited on each silicone square and spread out by means of a polypropylene square. 10 ml of sterile water were added in the bottom of the Petri dish with a diameter of 94 mm in order to ensure high relative humidity during incubation at 37° C. for 24 hours. For each silicone film type, three specimens were made.
(§8) After incubation, each silicone film was placed in a new Petri dish and washed with 10 ml of […] (SCDLP, according to the standard procedure of the ISO standard) for recovering the bacteria. After 5 washes, the SCDLP suspension was diluted down to 10^−6, and 1 ml of obtained solution was placed on a gelose plate PCA (duplicated). Each plate was incubated at 37° C. for 24 hours. The number of colonies on each Petri dish was then counted.
(§9) The viability of the bacteria depending on the obtained results was calculated by means of the following formula: […]
(§10) wherein: • N refers to the number of viable bacteria observed per cm^2 of each tested sample, • C refers to the average count of colonies on each gelose plate PCA, and • D refers to the dilution factor used for the counting.
(§11) The results of the viability measurements of the bacteria, expressed in log10(N), are gathered in Table 1, the detection limit having been set to a number of recovered bacteria equal to 10 (i.e. log10(N)=1.4).

[3] = test system: Klebsiella pneumoniae DSM 16609; test: as above; conditions: incubation 24 h at 37° C., detection limit log10(N)=1.4
Method: as §2, §3, §4, §5, §6, §7, §8, §9, §10, §11

[4] = test system: Acinetobacter baumannii CIP 70.34; test: as above; conditions: incubation 24 h at 37° C., detection limit log10(N)=1.4
Method: as §2, §3, §4, §5, §6, §7, §8, §9, §10, §11

[5] = test system: Enterococcus faecalis ATCC 29212; test: as above; conditions: incubation 24 h at 37° C., detection limit log10(N)=1.4
Method: as §2, §3, §4, §5, §6, §7, §8, §9, §10, §11

[6] = test system: Enterobacter cloacae DSM 30054; test: as above; conditions: incubation 24 h at 37° C., detection limit log10(N)=1.4
Method: as §2, §3, §4, §5, §6, §7, §8, §9, §10, §11

[7] = test system: Staphylococcus aureus ATCC 25923; test: as above; conditions: incubation 24 h at 37° C., detection limit log10(N)=1.4
Method: as §2, §3, §4, §5, §6, §7, §8, §9, §10, §11

[8] = test system: Penicillium chrysogenum HEM 20859; test: Tests on a fungus according to ISO 16869 (modified); set-up: key: mark 0 is ascribed when no growth is observed; mark 1 is ascribed when beginning of growth is observed; mark 2 is ascribed when obvious growth is observed; conditions: silicone film with 5% antimicrobial agent, 25° C., naked eye mark
Method: The antifungal activity of the silicone compositions of the invention was tested on the fungus line Penicillium chrysogenum HEM 20859, according to the procedure of the ISO 16869 standard (second edition, 2008).
as §1
Thus, each silicone film sample was placed in a Petri dish between a lower layer of nutrient salt agar (20 ml) and an upper layer of Peptone Dextrose agar in which fungus spores were dispersed. The remainder of the procedure of the aforementioned standard was followed.
The culture media were incubated at 25° C. for at least 48 h, and for up to 7 days.
The results are evaluated with the naked eye: • mark 0 is ascribed when no growth is observed, • mark 1 is ascribed when beginning of growth is observed, and • mark 2 is ascribed when obvious growth is observed.

[9] = silicone film with 2% antimicrobial agent
[10] = silicone film with 5% antimicrobial agent

CCCCCCCCCCCCn1cc[n+](C)c1.F[B-](F)(F)F [DMIM-BF4, 1-dodecyl-3-methylimidazolium tetrafluoroborate]
Viability of yeasts (log10(N)) Candida albicans [1, 9]: 1.4 log10(N) | Viability of yeasts (log10(N)) Candida albicans [1, 10]: 1.4 log10(N) | Viability of bacteria (log10(N)) Escherichia coli [2, 9]: 1.4 log10(N) | Viability of bacteria (log10(N)) Escherichia coli [2, 10]: 1.4 log10(N) | Viability of bacteria (log10(N)) Klebsiella pneumoniae [3, 9]: 1.4 log10(N) | Viability of bacteria (log10(N)) Klebsiella pneumoniae [3, 10]: 1.4 log10(N) | Viability of bacteria (log10(N)) Acinetobacter baumannii [4, 9]: 1.6 log10(N) | Viability of bacteria (log10(N)) Acinetobacter baumannii [4, 10]: 1.4 log10(N) | Viability of bacteria (log10(N)) Enterococcus faecalis [5, 9]: 1.4 log10(N) | Viability of bacteria (log10(N)) Enterococcus faecalis [5, 10]: 1.4 log10(N) | Viability of bacteria (log10(N)) Enterobacter cloacae [6, 9]: 1.4 log10(N) | Viability of bacteria (log10(N)) Enterobacter cloacae [6, 10]: 1.4 log10(N) | Viability of bacteria (log10(N)) Staphylococcus aureus [7, 9]: 1.4 log10(N) | Viability of bacteria (log10(N)) Staphylococcus aureus [7, 10]: 1.4 log10(N) | Observation of the growth of fungi Penicillium chrysogenum, Incubation for 48 h ([8]; 48 h): 0 | Observation of the growth of fungi Penicillium chrysogenum, Incubation for 7 days ([8]; 7 days): 0

CCCCCCCCn1cc[n+](C)c1.F[B-](F)(F)F [OMIM-BF4, 1-octyl-3-methylimidazolium tetrafluoroborate]
Viability of yeasts (log10(N)) Candida albicans [1, 9]: 6.1 log10(N) | Viability of yeasts (log10(N)) Candida albicans [1, 10]: 3.0 log10(N) | Viability of bacteria (log10(N)) Escherichia coli [2, 9]: 1.4 log10(N) | Viability of bacteria (log10(N)) Escherichia coli [2, 10]: 1.4 log10(N) | Viability of bacteria (log10(N)) Klebsiella pneumoniae [3, 9]: 3.3 log10(N) | Viability of bacteria (log10(N)) Klebsiella pneumoniae [3, 10]: 4.6 log10(N) | Viability of bacteria (log10(N)) Acinetobacter baumannii [4, 9]: 5.8 log10(N) | Viability of bacteria (log10(N)) Acinetobacter baumannii [4, 10]: 1.4 log10(N) | Viability of bacteria (log10(N)) Enterococcus faecalis [5, 9]: 3.6 log10(N) | Viability of bacteria (log10(N)) Enterococcus faecalis [5, 10]: 1.4 log10(N) | Viability of bacteria (log10(N)) Enterobacter cloacae [6, 9]: 3.6 log10(N) | Viability of bacteria (log10(N)) Enterobacter cloacae [6, 10]: 1.4 log10(N) | Viability of bacteria (log10(N)) Staphylococcus aureus [7, 9]: 1.6 log10(N) | Viability of bacteria (log10(N)) Staphylococcus aureus [7, 10]: 1.4 log10(N)

Reference: patent US20160106104A1, “SILICONE-BASED ANTIMICROBIAL COMPOSITION” (UNIVERSITE DU MAINE, priority 2013, published 2016)
